Experimental data reported in article PMC7778606, “Development of the phenylpyrazolo[3,4-d]pyrimidine-based, insulin-like growth factor receptor/Src/AXL-targeting small molecule kinase inhibitor” (Theranostics, 2021).

How the values were obtained:
Experiment in all cases: KINOMEscan competition binding assay
SRPK3 = biological target: T1, SRPK3 (Homo sapiens, UniProt Q9UPE1); conditions: LL6 at 10 μM; read-out: Percent Control
T1 construct: purchased DiscoverX KINOMEscan
Description: (§1) Kd values were obtained by KINOMEscan from DiscoverX (San Diego, CA, USA). To briefly summarize, Kd was measured by a competition binding assay that quantitatively measures the ability of a compound to compete with an immobilized ligand. […] Dose response curves of 11 points are obtained for Kd values, which are measured in duplicate. See more details in the cited references [39]-[42] and see also at www.discoverx.com.

[1] = biological target: T2, TYK2(JH1domain-catalytic) (Homo sapiens, UniProt P29597); conditions: LL6 at 10 μM; read-out: Percent Control
T2 construct: TYK2(JH1domain-catalytic); purchased DiscoverX KINOMEscan
Description: as §1

BRAF(V600E) = biological target: T3, BRAF(V600E) (Homo sapiens, UniProt P15056, V600E); conditions: LL6 at 10 μM; read-out: Percent Control
T3 construct: purchased DiscoverX KINOMEscan
Description: as §1

VEGFR2 = biological target: T4, VEGFR2 (Homo sapiens, UniProt P35968); conditions: LL6 at 10 μM; read-out: Percent Control
T4 construct: purchased DiscoverX KINOMEscan
Description: as §1

BRAF = biological target: T5, BRAF (Homo sapiens, UniProt P15056); conditions: LL6 at 10 μM; read-out: Percent Control
T5 construct: purchased DiscoverX KINOMEscan
Description: as §1

ERBB2 = biological target: T6, ERBB2 (Homo sapiens, UniProt P04626); conditions: LL6 at 10 μM; read-out: Percent Control
T6 construct: purchased DiscoverX KINOMEscan
Description: as §1

PCTK1 = biological target: T7, PCTK1 (Homo sapiens, UniProt Q00536); conditions: LL6 at 10 μM; read-out: Percent Control
T7 construct: purchased DiscoverX KINOMEscan
Description: as §1

[2] = biological target: T8, JAK3(JH1domain-catalytic) (Homo sapiens, UniProt P52333); conditions: LL6 at 10 μM; read-out: Percent Control
T8 construct: JAK3(JH1domain-catalytic); purchased DiscoverX KINOMEscan
Description: as §1

MKNK1 = biological target: T9, MKNK1 (Homo sapiens, UniProt Q9BUB5); conditions: LL6 at 10 μM; read-out: Percent Control
T9 construct: purchased DiscoverX KINOMEscan
Description: as §1

PLK1 = biological target: T10, PLK1 (Homo sapiens, UniProt P53350); conditions: LL6 at 10 μM; read-out: Percent Control
T10 construct: purchased DiscoverX KINOMEscan
Description: as §1

FGFR3 = biological target: T11, FGFR3 (Homo sapiens, UniProt P22607); conditions: LL6 at 10 μM; read-out: Percent Control
T11 construct: purchased DiscoverX KINOMEscan
Description: as §1

LKB1 = biological target: T12, LKB1 (Homo sapiens, UniProt Q15831); conditions: LL6 at 10 μM; read-out: Percent Control
T12 construct: purchased DiscoverX KINOMEscan
Description: as §1

PAK2 = biological target: T13, PAK2 (Homo sapiens, UniProt Q13177); conditions: LL6 at 10 μM; read-out: Percent Control
T13 construct: purchased DiscoverX KINOMEscan
Description: as §1

PIK3CA = biological target: T14, PIK3CA (Homo sapiens, UniProt P42336); conditions: LL6 at 10 μM; read-out: Percent Control
T14 construct: purchased DiscoverX KINOMEscan
Description: as §1

KIT(D816V) = biological target: T15, KIT(D816V) (Homo sapiens, UniProt P10721, D816V); conditions: LL6 at 10 μM; read-out: Percent Control
T15 construct: purchased DiscoverX KINOMEscan
Description: as §1

CSNK1D = biological target: T16, CSNK1D (Homo sapiens, UniProt P48730); conditions: LL6 at 10 μM; read-out: Percent Control
T16 construct: purchased DiscoverX KINOMEscan
Description: as §1

TIE2 = biological target: T17, TIE2 (Homo sapiens, UniProt Q02763); conditions: LL6 at 10 μM; read-out: Percent Control
T17 construct: purchased DiscoverX KINOMEscan
Description: as §1

GSK3B = biological target: T18, GSK3B (Homo sapiens, UniProt P49841); conditions: LL6 at 10 μM; read-out: Percent Control
T18 construct: purchased DiscoverX KINOMEscan
Description: as §1

KIT(V559D,T670I) = biological target: T19, KIT(V559D,T670I) (Homo sapiens, UniProt P10721, T670I/V559D); conditions: LL6 at 10 μM; read-out: Percent Control
T19 construct: purchased DiscoverX KINOMEscan
Description: as §1

ALK = biological target: T20, ALK (Homo sapiens, UniProt Q9UM73); conditions: LL6 at 10 μM; read-out: Percent Control
T20 construct: purchased DiscoverX KINOMEscan
Description: as §1

MET = biological target: T21, MET (Homo sapiens, UniProt P08581); conditions: LL6 at 10 μM; read-out: Percent Control
T21 construct: purchased DiscoverX KINOMEscan
Description: as §1

MEK2 = biological target: T22, MEK2 (Homo sapiens, UniProt P36507); conditions: LL6 at 10 μM; read-out: Percent Control
T22 construct: purchased DiscoverX KINOMEscan
Description: as §1

RIOK2 = biological target: T23, RIOK2 (Homo sapiens, UniProt Q9BVS4); conditions: LL6 at 10 μM; read-out: Percent Control
T23 construct: purchased DiscoverX KINOMEscan
Description: as §1

CDK2 = biological target: T24, CDK2 (Homo sapiens, UniProt P24941); conditions: LL6 at 10 μM; read-out: Percent Control
T24 construct: purchased DiscoverX KINOMEscan
Description: as §1

CSNK1G2 = biological target: T25, CSNK1G2 (Homo sapiens, UniProt P78368); conditions: LL6 at 10 μM; read-out: Percent Control
T25 construct: purchased DiscoverX KINOMEscan
Description: as §1

EGFR(L858R) = biological target: T26, EGFR(L858R) (Homo sapiens, UniProt P00533, L858R); conditions: LL6 at 10 μM; read-out: Percent Control
T26 construct: purchased DiscoverX KINOMEscan
Description: as §1

JNK1 = biological target: T27, JNK1 (Homo sapiens, UniProt P45983); conditions: LL6 at 10 μM; read-out: Percent Control
T27 construct: purchased DiscoverX KINOMEscan
Description: as §1

IR = biological target: T28, IR (Homo sapiens, UniProt P06213)
T28 construct: purchased DiscoverX (KINOMEscan service)
Description: as §1

FAK = biological target: T29, FAK (Homo sapiens, UniProt Q05397); conditions: LL6 at 10 μM; read-out: Percent Control
T29 construct: purchased DiscoverX KINOMEscan
Description: as §1

ERK1 = biological target: T30, ERK1 (Homo sapiens, UniProt P27361); conditions: LL6 at 10 μM; read-out: Percent Control
T30 construct: purchased DiscoverX KINOMEscan
Description: as §1

PLK4 = biological target: T31, PLK4 (Homo sapiens, UniProt O00444); conditions: LL6 at 10 μM; read-out: Percent Control
T31 construct: purchased DiscoverX KINOMEscan
Description: as §1

MAP3K4 = biological target: T32, MAP3K4 (Homo sapiens, UniProt Q9Y6R4); conditions: LL6 at 10 μM; read-out: Percent Control
T32 construct: purchased DiscoverX KINOMEscan
Description: as §1

PKAC-alpha = biological target: T33, PKAC-alpha (Homo sapiens, UniProt P17612); conditions: LL6 at 10 μM; read-out: Percent Control
T33 construct: purchased DiscoverX KINOMEscan
Description: as §1

JNK3 = biological target: T34, JNK3 (Homo sapiens, UniProt P53779); conditions: LL6 at 10 μM; read-out: Percent Control
T34 construct: purchased DiscoverX KINOMEscan
Description: as §1

ROCK2 = biological target: T35, ROCK2 (Homo sapiens, UniProt O75116); conditions: LL6 at 10 μM; read-out: Percent Control
T35 construct: purchased DiscoverX KINOMEscan
Description: as §1

CDK3 = biological target: T36, CDK3 (Homo sapiens, UniProt Q00526); conditions: LL6 at 10 μM; read-out: Percent Control
T36 construct: purchased DiscoverX KINOMEscan
Description: as §1

FGFR2 = biological target: T37, FGFR2 (Homo sapiens, UniProt P21802); conditions: LL6 at 10 μM; read-out: Percent Control
T37 construct: purchased DiscoverX KINOMEscan
Description: as §1

DYRK1B = biological target: T38, DYRK1B (Homo sapiens, UniProt Q9Y463); conditions: LL6 at 10 μM; read-out: Percent Control
T38 construct: purchased DiscoverX KINOMEscan
Description: as §1

JNK2 = biological target: T39, JNK2 (Homo sapiens, UniProt P45984); conditions: LL6 at 10 μM; read-out: Percent Control
T39 construct: purchased DiscoverX KINOMEscan
Description: as §1

p38-alpha = biological target: T40, p38-alpha (Homo sapiens, UniProt Q16539); conditions: LL6 at 10 μM; read-out: Percent Control
T40 construct: purchased DiscoverX KINOMEscan
Description: as §1

T28 sequence (P06213 28-1382): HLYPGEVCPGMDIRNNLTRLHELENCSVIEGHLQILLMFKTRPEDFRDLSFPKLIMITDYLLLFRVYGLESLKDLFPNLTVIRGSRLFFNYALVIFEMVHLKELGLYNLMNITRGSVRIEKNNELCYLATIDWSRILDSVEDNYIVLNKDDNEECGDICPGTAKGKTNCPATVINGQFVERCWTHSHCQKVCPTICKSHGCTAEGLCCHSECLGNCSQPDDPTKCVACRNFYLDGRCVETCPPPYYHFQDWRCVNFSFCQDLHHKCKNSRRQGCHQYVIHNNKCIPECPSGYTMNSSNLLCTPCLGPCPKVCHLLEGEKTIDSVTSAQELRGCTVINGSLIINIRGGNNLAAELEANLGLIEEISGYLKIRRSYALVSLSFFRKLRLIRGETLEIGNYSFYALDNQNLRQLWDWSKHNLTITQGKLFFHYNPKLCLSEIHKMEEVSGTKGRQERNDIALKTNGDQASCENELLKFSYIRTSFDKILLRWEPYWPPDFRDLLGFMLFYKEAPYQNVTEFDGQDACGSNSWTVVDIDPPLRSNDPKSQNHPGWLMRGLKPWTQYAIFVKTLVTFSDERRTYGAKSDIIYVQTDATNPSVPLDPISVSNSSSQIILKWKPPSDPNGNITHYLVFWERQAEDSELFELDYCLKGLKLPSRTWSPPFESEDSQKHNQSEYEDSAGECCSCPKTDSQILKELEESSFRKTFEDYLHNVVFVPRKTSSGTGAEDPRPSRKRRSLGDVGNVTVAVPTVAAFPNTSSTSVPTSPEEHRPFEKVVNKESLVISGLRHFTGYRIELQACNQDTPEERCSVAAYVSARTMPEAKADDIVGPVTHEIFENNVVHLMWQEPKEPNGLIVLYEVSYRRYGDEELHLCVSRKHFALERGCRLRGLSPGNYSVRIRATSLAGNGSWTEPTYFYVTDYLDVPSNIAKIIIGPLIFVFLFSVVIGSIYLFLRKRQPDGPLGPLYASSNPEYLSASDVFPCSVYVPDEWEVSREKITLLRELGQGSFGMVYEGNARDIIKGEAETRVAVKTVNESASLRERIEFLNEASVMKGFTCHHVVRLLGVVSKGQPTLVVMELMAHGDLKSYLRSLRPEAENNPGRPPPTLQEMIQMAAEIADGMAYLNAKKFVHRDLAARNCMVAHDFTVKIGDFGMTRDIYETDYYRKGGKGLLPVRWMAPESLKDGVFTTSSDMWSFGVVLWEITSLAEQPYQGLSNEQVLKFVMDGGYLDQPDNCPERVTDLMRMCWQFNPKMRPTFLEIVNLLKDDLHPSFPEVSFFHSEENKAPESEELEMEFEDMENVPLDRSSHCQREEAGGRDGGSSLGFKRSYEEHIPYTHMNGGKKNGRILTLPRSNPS
T2 sequence (P29597 889-1187 limits assumed): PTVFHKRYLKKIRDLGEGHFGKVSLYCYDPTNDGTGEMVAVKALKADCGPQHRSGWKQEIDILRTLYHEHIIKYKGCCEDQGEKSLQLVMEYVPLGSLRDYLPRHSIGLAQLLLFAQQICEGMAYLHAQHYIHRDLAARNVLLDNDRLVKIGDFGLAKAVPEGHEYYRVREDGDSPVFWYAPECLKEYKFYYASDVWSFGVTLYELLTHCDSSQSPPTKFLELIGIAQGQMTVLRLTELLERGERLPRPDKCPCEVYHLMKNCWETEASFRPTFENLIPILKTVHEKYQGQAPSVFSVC
T11 sequence (P22607 23-806): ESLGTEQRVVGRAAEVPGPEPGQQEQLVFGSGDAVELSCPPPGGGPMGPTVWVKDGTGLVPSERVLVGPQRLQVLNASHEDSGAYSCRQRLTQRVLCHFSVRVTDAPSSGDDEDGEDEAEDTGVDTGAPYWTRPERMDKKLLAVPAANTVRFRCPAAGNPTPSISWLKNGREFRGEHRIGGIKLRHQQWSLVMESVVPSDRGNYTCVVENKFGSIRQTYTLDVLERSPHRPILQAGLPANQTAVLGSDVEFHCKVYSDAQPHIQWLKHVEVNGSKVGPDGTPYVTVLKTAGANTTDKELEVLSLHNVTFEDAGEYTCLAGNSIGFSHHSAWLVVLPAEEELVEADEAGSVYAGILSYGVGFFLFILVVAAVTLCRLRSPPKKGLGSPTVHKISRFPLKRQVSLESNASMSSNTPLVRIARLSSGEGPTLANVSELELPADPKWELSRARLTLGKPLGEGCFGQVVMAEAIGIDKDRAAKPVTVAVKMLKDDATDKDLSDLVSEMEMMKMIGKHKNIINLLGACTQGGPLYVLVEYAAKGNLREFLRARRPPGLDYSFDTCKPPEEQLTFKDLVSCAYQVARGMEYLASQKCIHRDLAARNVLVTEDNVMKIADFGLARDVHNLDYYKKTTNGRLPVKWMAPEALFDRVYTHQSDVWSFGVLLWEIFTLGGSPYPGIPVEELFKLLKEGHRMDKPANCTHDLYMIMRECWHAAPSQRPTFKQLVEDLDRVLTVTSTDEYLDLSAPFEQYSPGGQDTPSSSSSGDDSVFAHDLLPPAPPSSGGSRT
T38 sequence (Q9Y463 whole entry): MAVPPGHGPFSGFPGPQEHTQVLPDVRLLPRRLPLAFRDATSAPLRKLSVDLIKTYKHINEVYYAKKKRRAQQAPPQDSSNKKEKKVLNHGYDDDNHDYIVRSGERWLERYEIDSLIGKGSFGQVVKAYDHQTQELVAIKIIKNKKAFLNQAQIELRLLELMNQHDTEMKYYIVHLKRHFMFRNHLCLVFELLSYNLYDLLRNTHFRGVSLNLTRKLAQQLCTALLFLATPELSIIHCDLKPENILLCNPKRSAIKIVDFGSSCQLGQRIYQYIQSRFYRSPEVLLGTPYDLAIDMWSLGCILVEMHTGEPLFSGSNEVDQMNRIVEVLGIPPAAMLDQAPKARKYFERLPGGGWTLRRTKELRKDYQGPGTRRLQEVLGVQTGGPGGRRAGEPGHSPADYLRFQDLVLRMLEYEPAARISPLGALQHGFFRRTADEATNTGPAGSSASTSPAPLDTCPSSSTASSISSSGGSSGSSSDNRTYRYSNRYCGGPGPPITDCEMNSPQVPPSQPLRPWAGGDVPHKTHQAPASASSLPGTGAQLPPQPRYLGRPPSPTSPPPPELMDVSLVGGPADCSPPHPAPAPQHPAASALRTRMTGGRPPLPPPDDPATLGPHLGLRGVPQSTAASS
T9 sequence (Q9BUB5 whole entry): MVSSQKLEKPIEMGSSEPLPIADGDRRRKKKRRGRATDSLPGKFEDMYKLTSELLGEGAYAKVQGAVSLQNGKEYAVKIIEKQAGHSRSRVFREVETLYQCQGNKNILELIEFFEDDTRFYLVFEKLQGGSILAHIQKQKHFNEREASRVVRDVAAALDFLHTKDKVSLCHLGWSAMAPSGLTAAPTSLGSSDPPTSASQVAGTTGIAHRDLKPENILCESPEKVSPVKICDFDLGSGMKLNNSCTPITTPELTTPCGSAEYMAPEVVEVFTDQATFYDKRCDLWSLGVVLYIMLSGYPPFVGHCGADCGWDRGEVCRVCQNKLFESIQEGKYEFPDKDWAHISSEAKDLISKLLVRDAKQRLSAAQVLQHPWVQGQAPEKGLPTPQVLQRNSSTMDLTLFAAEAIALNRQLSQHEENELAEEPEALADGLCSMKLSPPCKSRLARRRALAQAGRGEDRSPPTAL
T16 sequence (P48730 whole entry): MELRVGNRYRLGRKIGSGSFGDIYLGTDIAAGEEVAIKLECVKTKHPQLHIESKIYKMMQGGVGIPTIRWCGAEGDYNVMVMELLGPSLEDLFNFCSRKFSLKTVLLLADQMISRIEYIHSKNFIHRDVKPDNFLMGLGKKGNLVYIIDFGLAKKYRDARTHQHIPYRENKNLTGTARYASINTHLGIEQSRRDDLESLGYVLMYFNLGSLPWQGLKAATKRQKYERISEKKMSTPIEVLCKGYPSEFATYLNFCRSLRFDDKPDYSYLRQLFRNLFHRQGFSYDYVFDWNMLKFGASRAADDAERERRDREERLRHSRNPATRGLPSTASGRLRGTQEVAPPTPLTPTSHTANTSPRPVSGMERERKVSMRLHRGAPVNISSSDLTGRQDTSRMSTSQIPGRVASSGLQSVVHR
T17 sequence (Q02763 23-1124): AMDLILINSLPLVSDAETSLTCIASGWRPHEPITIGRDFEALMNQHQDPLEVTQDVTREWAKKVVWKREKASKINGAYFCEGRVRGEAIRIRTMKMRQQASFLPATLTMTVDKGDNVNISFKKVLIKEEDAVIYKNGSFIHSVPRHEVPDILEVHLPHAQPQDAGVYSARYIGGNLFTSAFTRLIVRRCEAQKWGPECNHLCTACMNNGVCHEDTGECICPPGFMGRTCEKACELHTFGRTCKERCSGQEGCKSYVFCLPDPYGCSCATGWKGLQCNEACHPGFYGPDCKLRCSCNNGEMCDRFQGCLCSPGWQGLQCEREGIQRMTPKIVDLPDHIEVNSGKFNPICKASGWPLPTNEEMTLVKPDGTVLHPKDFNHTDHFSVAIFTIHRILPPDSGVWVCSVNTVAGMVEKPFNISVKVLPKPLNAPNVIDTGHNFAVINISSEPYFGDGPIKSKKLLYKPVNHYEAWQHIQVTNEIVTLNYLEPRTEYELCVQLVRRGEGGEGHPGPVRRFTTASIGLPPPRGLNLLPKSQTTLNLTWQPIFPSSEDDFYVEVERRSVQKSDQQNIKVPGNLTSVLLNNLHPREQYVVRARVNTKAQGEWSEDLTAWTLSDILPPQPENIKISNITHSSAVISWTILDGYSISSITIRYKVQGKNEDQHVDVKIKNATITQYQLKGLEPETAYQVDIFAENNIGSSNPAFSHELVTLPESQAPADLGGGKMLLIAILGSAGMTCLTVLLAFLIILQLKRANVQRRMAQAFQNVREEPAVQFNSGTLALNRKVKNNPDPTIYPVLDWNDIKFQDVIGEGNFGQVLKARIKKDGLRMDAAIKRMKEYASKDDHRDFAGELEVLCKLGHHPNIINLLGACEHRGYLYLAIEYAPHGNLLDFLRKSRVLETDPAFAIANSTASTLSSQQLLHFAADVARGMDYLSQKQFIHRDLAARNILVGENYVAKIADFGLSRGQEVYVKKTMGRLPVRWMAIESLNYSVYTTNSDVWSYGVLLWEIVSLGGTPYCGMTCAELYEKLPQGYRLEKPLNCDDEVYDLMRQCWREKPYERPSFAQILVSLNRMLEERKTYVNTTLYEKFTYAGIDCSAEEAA

remaining binding at 10 µM (SRPK3): 84%
remaining binding at 10 µM [1]: 100%
remaining binding at 10 µM (BRAF(V600E)): 22%
remaining binding at 10 µM (VEGFR2): 65%
remaining binding at 10 µM (BRAF): 45%
remaining binding at 10 µM (ERBB2): 100%
remaining binding at 10 µM (PCTK1): 78%
remaining binding at 10 µM [2]: 100%
remaining binding at 10 µM (MKNK1): 100%
remaining binding at 10 µM (PLK1): 100%
remaining binding at 10 µM (FGFR3): 89%
remaining binding at 10 µM (LKB1): 90%
remaining binding at 10 µM (PAK2): 100%
remaining binding at 10 µM (PIK3CA): 100%
remaining binding at 10 µM (KIT(D816V)): 66%
remaining binding at 10 µM (CSNK1D): 14%
remaining binding at 10 µM (TIE2): 62%
remaining binding at 10 µM (GSK3B): 67%
remaining binding at 10 µM (KIT(V559D,T670I)): 80%
remaining binding at 10 µM (ALK): 100%
remaining binding at 10 µM (MET): 75%
remaining binding at 10 µM (MEK2): 95%
remaining binding at 10 µM (RIOK2): 100%
remaining binding at 10 µM (CDK2): 99%
remaining binding at 10 µM (CSNK1G2): 63%
remaining binding at 10 µM (EGFR(L858R)): 88%
remaining binding at 10 µM (JNK1): 100%
Kd (IR; IR, 11-point dose response, duplicate): not accurately measurable
inhibition at 10 µM (IR; IR, LL6 at 10 µM): > 65%
remaining binding at 10 µM (IR; LL6 at 10 μM, read-out: Percent Control): 35%
remaining binding at 10 µM (FAK): 73%
remaining binding at 10 µM (ERK1): 100%
remaining binding at 10 µM (PLK4): 66%
remaining binding at 10 µM (MAP3K4): 75%
remaining binding at 10 µM (PKAC-alpha): 36%
remaining binding at 10 µM (JNK3): 42%
remaining binding at 10 µM (ROCK2): 100%
remaining binding at 10 µM (CDK3): 97%
remaining binding at 10 µM (FGFR2): 62%
remaining binding at 10 µM (DYRK1B): 55%
remaining binding at 10 µM (JNK2): 67%
remaining binding at 10 µM (p38-alpha): 100%
SMILES: Nc1ncnc2c1c(-c1ccc(Cl)cc1)nn2CCn1cc(COc2ccc(Nc3nccc(Nc4cnc5ccccc5c4)n3)cc2)nn1 [LL6]
